This note sets out measurements from patent publication US9365549B2, “Hepatitis C virus inhibitors” (THERAVANCE BIOPHARMA R&D IP, LLC, priority 2012, dated 2016).

Assay [1] deals with HCV genotype 1a replicon cell line. Description: HCV Genotype 1a Replicon Assay. It is filed as cell-based. The note with it: Hepatitis C virus, Huh7.5 cell background, NS3-specific protease activity in lysates, 48 or 72 hours, read-out: pEC50 Genotype 1a (converted). How it is done: Assay 2: HCV Genotype 1a Replicon Assay
The HCV genotype 1a replicon cell line was obtained from Apath LLC (APC89; Huh7.5 cell background). This subgenomic replicon contains the N-terminus of the HCV core protein fused to the neomycin-resistance selectable marker. The EMCV IRES lies downstream and drives expression of the non-structural proteins NS3-NS5B. Compound potencies were determined using the NS3-specific protease activity in lysates as a measurement of compound inhibition of replicon levels.
(§1) Cells were grown at 37° C. in a 5% CO2 humidified incubator in DMEM (Invitrogen) with 10% FBS (HyClone), 1×NEAA (Invitrogen), 1× Pen-Strep (Invitrogen), and 850 μg/mL G418 (Invitrogen). On day 1 of the assay, cells were plated at 15,000 cells/well in black 96-well tissue culture plates (Costar) in 200 μL media lacking G418. […] Compounds were initially diluted in DMSO and then diluted another 200× in media to bring the final DMSO concentration down to 0.5%. The cells were incubated with test compounds for 48 or 72 hours. At the end of the incubation period, media and compound were removed from the plates.
To determine the NS3-specific protease activity in lysates, the cells were lysed at room temperature in 50 μL/well of 50 mM Hepes pH 7.5, 150 mM NaCl, 15% Glycerol, 0.15% Triton X-100, 10 mM DTT for 20 minutes with shaking. 50 μL of an NS3/4a protease-specific FRET substrate (Anaspec RET S1 Cat#22991) was then added to the wells at a final concentration of 15 μM. The plates were incubated at 37° C. for 20 minutes, which corresponds to a timepoint at which the protease activity is still in the linear phase. Protease activity was determined by measuring fluorescence (Excitation: 340 nm; Emission: 509 nm).
To analyze the data, the fluorescence was plotted vs. the compound concentration, and EC50 values were determined from a 4-parameter robust fit model using GraphPad Prism software.

The test system of assay [2] is HCV genotype 1b replicon cell line. The assay is described as follows: HCV Genotype 1b Replicon Assay. The note with it: Hepatitis C virus, Huh-7, Huh7 cell background, luciferase activity readout, 48 hours. In kind it is cell-based.
Excerpt: Assay 1: HCV Genotype 1b Replicon Assay
The HCV genotype 1b replicon cell line was obtained from Apath LLC (Brooklyn, N.Y.) (APC144; Huh7 cell background). This subgenomic replicon contains the N-terminus of the HCV core protein fused to the neomycin-resistance selectable marker. The EMCV IRES lies downstream and drives expression of humanized Renilla luciferase fused to the non-structural proteins NS3-NS5B. This cell line was used to determine compound potency using the luciferase activity readout as a measurement of compound inhibition of replicon levels.
as §1, with “500” for “850”, “10,000” for “15,000”, “white” for “black”, “48” for “48 or 72”, “plates and the luciferase activity was determined using Promega Renilla-Glo reagents.” for “plates.”
To analyze the data, the luciferase activity was plotted vs. the compound concentration, and EC50 values were determined from a 4-parameter robust fit model with the GraphPad Prism software package (GraphPad Software, Inc., San Diego, Calif.). Results are expressed as the negative decadic logarithm of the EC50 value, pEC50.

`COC(=O)N[C@H](C(=O)N1C[C@@H](C)C[C@H]1c1nc2c(ccc3cc(-c4cc(Cl)c(NC(=O)c5ccc(N6CCN(C(=O)C7CC7)C[C@H]6C)nc5)cc4OC(F)(F)F)ccc32)[nH]1)C(C)C` [Example 9, ((S)-1-{(2S,4S)-2-[7-(5-Chloro-4-{[6-((R)-4-cyclopropanecarbonyl-2-methyl-piperazin-1-yl)-pyridine-3-carbonyl]-amino}-2-trifluoromethoxy-phenyl)-3H-naphtho[1,2-d]imidazol-2-yl]-4-methyl-pyrrolidine-1-carbonyl}-2-methyl-propyl)-carbamic acid methyl ester]: the EC50 in assay [1] and in assay [2] was below 0.1 nM throughout.
